Data from patent US5457105A, “Quinazoline derivatives useful for treatment of neoplastic disease” (Zeneca Limited, priority 1992, dated 1995).

Tests used:
[1] = target: T1, receptor tyrosine kinase (Homo sapiens, UniProt P00533); test: Test (a): in vitro inhibition of the enzyme receptor tyrosine kinase (from A-431 cells); type: biochemical; conditions: EGF, 25° C., 10 minutes
T1 construct: obtained in partially purified form from A-431 cells; endogenous in cells; host or cells: A-431 cells (human vulval carcinoma); detergent-solubilised membrane fraction
T1 sequence (P00533 25-1210): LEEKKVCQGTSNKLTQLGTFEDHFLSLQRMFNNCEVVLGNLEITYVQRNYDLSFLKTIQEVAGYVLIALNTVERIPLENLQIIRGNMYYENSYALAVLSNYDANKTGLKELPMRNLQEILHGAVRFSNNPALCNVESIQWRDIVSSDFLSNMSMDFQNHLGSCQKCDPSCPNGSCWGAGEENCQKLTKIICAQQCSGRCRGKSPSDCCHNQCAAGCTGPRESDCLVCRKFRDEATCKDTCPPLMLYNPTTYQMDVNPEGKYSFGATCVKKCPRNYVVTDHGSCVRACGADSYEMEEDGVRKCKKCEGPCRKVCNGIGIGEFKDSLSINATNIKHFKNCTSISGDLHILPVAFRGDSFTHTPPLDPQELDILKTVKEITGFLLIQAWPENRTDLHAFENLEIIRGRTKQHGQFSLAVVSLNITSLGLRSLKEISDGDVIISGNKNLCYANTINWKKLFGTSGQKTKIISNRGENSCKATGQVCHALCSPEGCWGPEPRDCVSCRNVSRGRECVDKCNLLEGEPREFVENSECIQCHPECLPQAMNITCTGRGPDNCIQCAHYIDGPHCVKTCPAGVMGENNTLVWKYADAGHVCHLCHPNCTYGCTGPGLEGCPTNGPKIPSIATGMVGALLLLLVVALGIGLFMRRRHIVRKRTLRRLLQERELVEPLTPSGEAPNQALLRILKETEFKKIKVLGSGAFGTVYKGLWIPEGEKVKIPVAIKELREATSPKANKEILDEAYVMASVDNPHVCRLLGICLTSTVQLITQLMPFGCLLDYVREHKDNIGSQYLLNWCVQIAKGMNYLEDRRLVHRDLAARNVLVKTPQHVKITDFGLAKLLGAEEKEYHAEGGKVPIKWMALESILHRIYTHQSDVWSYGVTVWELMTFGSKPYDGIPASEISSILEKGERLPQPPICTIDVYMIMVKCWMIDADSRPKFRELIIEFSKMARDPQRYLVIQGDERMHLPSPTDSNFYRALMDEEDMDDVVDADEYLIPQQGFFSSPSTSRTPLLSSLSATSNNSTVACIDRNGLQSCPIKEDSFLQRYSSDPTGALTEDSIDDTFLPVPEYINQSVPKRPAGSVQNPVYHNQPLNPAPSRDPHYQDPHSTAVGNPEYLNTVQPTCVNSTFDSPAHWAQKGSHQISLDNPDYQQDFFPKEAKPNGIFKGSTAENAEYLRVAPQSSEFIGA
Description: (a) An in vitro assay which determines the ability of a test compound to inhibit the enzyme receptor tyrosine kinase. Receptor tyrosine kinase was obtained in partially purified form from A-431 cells (derived from human vulval carcinoma) by procedures related to those described by Carpenter et al., J. Biol. Chem., 1979, 254, 4884, Cohen et al., J. Biol. Chem., 1982, 257, 1523 and by Braun et al., J. Biol. Chem., 1984, 259, 2051.
A-431 cells were grown to confluence using Dulbecco's modified Eagle's medium (DMEM) containing 5% fetal calf serum (FCS). The obtained cells were homogenised in a hypotonic borate/EDTA buffer at pH 10.1. The homogenate was centrifuged at 400 g for 10 minutes at 0°-4° C. The supernatant was centrifuged at 25,000 g for 30 minutes at 0°-4° C. The pelleted material was suspended in 30 mM Hepes buffer at pH 7.4 containing 5% glycerol, 4 mM benzamidine and 1% Triton X-100, stirred for 1 hour at 0°-4° C., and recentrifuged at 100,000 g for 1 hour at 0°-4° C. The supernatant, containing solubilised receptor tyrosine kinase, was stored in liquid nitrogen.
For test purposes 40 μl of the enzyme solution so obtained was added to a mixture of 400 μl of a mixture of 150 mM Hepes buffer at pH 7.4, 500 μM sodium orthovanadate, 0.1% Triton X-100, 10% glycerol, 200 μl water, 80 μl of 25 mM DTT and 80 µl of a mixture of 12.5 mM manganese chloride, 125 mM magnesium chloride and distilled water. There was thus obtained the test enzyme solution.
Each test compound was dissolved in dimethylsulphoxide (DMSO) to give a 50 mM solution which was diluted with 40 mM Hepes buffer containing 0.1% Triton X-100, 10% glycerol and 10% DMSO to give a 500 μM solution. Equal volumes of this solution and a solution of epidermal growth factor (EGF; 20 μg/ml) were mixed.
[γ-^32 P]ATP (3000 Ci/mM, 250 μCi) was diluted to a volume of 2 ml by the addition of a solution of ATP (100 μM) in distilled water. An equal volume of a 4 mg/ml solution of the peptide Arg-Arg-Leu-Ile-Glu-Asp-Ala-Glu-Tyr-Ala-Ala-Arg-Gly in a mixture of 40 mM Hepes buffer at pH 7.4, 0.1% Triton X-100 and 10% glycerol was added.
The test compound/EGF mixture solution (5 μl) was added to the test enzyme solution (10 μl) and the mixture was incubated at 0°-4° C. for 30 minutes. The ATP/peptide mixture (10 μl) was added and the mixture was incubated at 25° C. for 10 minutes. The phosphorylation reaction was terminated by the addition of 5% trichloroacetic acid (40 μl) and bovine serum albumin (BSA; 1 mg/ml, 5 μl). The mixture was allowed to stand at 4° C. for 30 minutes and then centrifuged. […] Radioactivity present in the filter paper was measured using a liquid scintillation counter (Sequence A). […]
The extent of inhibition was then determined at a range of concentrations of test compound to give an IC50 value.

[2] = system: human naso-pharyngeal cancer cell line KB; test: Test (b): in vitro inhibition of growth of the human naso-pharyngeal cancer cell line KB; type: cell-based; conditions: KB cells, EGF (10 ng/ml), 3 days, MTT
Description: (b) An in vitro assay which determines the ability of a test compound to inhibit the growth of the human naso-pharyngeal cancer cell line KB.
KB cells were seeded into wells at a density of 1×10^4 -1.5×10^4 cells per well and grown for 24 hours in DMEM supplemented with 5% FCS (charcoal-stripped). Cell growth was determined after incubation for 3 days by the extent of metabolism of MTT tetrazolium dye to furnish a bluish colour. Cell growth was then determined in the presence of EGF (10 ng/ml) or in the presence of EGF (10 ng/ml) and a test compound at a range of concentrations. An IC50 value could then be calculated.

[3] = system: human mammary carcinoma which expresses epidermal growth factor (EGF) receptor tyrosine kinase; conditions: athymic nude mice; EGF receptor tyrosine kinase expressing; Toi et al. 1990; cited from earlier work
[4] = system: another carcinoma which does not express EGF receptor tyrosine kinase; conditions: carcinoma not expressing EGF receptor tyrosine kinase; Toi et al. 1990; cited from earlier work
[5] = system: liver hepatocyte growth caused by the administration of the growth factor TGFα; test: Test (c): in vivo inhibition of TGFα-stimulated liver hepatocyte growth in male rats; parameters: species or system rat; conditions: usually orally, TGFα 400 μg/kg subcutaneously, inhibition of BrdU uptake, approximate ED50
Description: Cell-growth in the control and test animals is determined as follows: On the morning of the day after the dosing of the test compound (or 0.5% polysorbate in the control group), the animals are dosed with bromodeoxyuridine (BrdU; 100 mg/kg intraperitoneally). The animals are killed four hours later and the livers are excised. […] Further tests were carried out using a range of doses of the test compounds to allow the calculation of an approximate ED50 value for the inhibition of liver hepatocyte proliferation as determined by inhibition of the uptake of BrdU.

| IC50 [1] [nM] | IC50 ([2]; Homo sapiens, 72 h) [nM] | Compound | further results |
| --- | --- | --- | --- |
| 10 | 650 | CC(=O)Nc1ccc2ncnc(Nc3cccc(C)c3)c2c1 [6-acetamido-4-(3'-methylanilino)quinazoline] | – |
| – | – | O=CN/C=C/c1cc(O)ccc1O [erbstatin] | growth of transplanted human mammary carcinoma [3]: specifically attenuates the growth; growth of another carcinoma [4]: without effect |
| 5 | 50 | COc1cc2ncnc(Nc3cccc(C)c3)c2cc1OC [6,7-dimethoxy-4-(3'-methylanilino)quinazoline] | ED50 ([5]; Rattus norvegicus, Hepatocyte, po): < 5 mg/kg |
| – | – | Cc1cccc(Nc2ncnc3ccc(N)cc23)c1 [6-amino-4-(3'-methylanilino)quinazoline] | ED50 in Test (c) [5]: < 5 mg/kg; IC50 [2]: 1000 nM |
| 5 | 140 | COc1cc2c(Nc3cccc(C)c3)ncnc2cc1OCCO [7-(2-hydroxyethoxy)-6-methoxy-4-(3'-methylanilino)quinazoline] | – |
| 10 | 300 | COc1cc2ncnc(Nc3cccc(C(F)(F)F)c3)c2cc1OC [6,7-dimethoxy-4-(3'-trifluoromethylanilino)quinazoline] | – |
